From patent US20140271584A1, “Methods and Compositions for Direct Reprogramming of Somatic Cells to Stem Cells, and Uses of these Cells” (THE RESEARCH FOUNDATION FOR THE STATE UNIVERSITY OF NEW YORK, priority 2013, published 2014)

Tested on: AF cells
Assay: Colony formation of OCT4 lentivirus-transduced AF cells in ES or endothelial cell medium
Type: cell-based, human
Description: Transduction via integrating plasmid. Lentivirus based vectors carrying human SOX2 or OCT4 gene, or GFP only gene, each expressed under control of either the SFFV promoter or EF1α promoter, were packaged using the 293FT cell line (Invitrogen/Life Technologies, Inc.) to produce lentivirus. The viruses were concentrated by centrifugation and stored at −80° C. One day before infection, tissue culture dishes were coated with poly-L-ornithine (PLO) and laminin AF, BM, or HFF cells were seeded at a density of 15,000 cells/cm^2. Lentiviruses were added at a MOI of 10-100 in the presence of 8 μg/ml polybrene (EMD Millipore, Billerica, Mass.) for 6 hours. Efficiency was measured after 24-48 hours by expression of green fluorescence.
After viral transduction, cells were transferred to human ES (embryonic stem cell) medium (supplemented with 20% Knockout Serum replacement, 2 mM glutamine, 0.1 mM non-essential amino acids, 10 ng/ml bFGF, 100 μM β-Mercaptoethanol) or endothelial cell medium, such as EGM2 (Lonza, Inc.).

## Nc1ncnc2c1nc(Br)n2[C@@H]1O[C@@H]2COP(=O)(O)O[C@H]2[C@H]1O [8-Br-cAMP, (1S,6R,8R,9R)-8-(6-amino-8-bromopurin-9-yl)-3-hydroxy-3-oxo-2,4,7-trioxa-3λ5-phosphabicyclo[4.3.0]nonan-9-ol]
0.1 mM in the culture media
  increase of the efficiency of colony formation (accelerated and increased): approximately 15%

## Cc1cccc(-c2n[nH]cc2-c2ccc3ncccc3n2)n1 [compound 616452, 2-(3-(6-Methylpyridin-2-yl)-1H-pyrazol-4-yl)-1,5-naphthyridine]
10 μM in the culture media
  increase of the efficiency of colony formation (accelerated and increased): approximately 15%
